# Test system: SYO-1 complex spheroid growth, percent test/control
# Test: Anticancer human tumor SYO-1 cell line growth inhibition [Asc];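 also: compound exposure lasted 7 days after spheroids grew 3 days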;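 as to viability, T/C: 100% = DMSO vehicle control viability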
# Conditions: for IC50: curve of first compound; for viability, T/C: stronger effect = lower value
# Procedure, shortened: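 Complex solid-tumor spheroids incorporating human endothelial and mesenchymal stem cells received single agents or combinations over half-log dilution ranges anchored to clinical Cmax.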
# [1] = second compound 0.01 µM, first compound 0.0316 µM
# [2] = second compound 0.01 µM, first compound 0.1 µM
# [3] = second compound 0.01 µM, first compound 0.316 µM
# [4] = second compound 0.01 µM, first compound 1 µM
# [5] = second compound 0.0316 µM, first compound 0.0316 µM
# [6] = second compound 0.0316 µM, first compound 0.1 µM
# [7] = second compound 0.0316 µM, first compound 0.316 µM
# [8] = second compound 0.0316 µM, first compound 1 µM
# [9] = second compound 0.1 µM, first compound 0.0316 µM
# [10] = second compound 0.1 µM, first compound 0.1 µM
# [11] = second compound 0.1 µM, first compound 0.316 µM
# [12] = second compound 0.1 µM, first compound 1 µM
# [13] = second compound 0.316 µM, first compound 0.0316 µM
# [14] = second compound 0.316 µM, first compound 0.1 µM
# [15] = second compound 0.316 µM, first compound 0.316 µM
# [16] = second compound 0.316 µM, first compound 1 µM
# [17] = second compound 1 µM, first compound 0.0316 µM
# [18] = second compound 1 µM, first compound 0.1 µM
# [19] = second compound 1 µM, first compound 0.316 µM
# [20] = second compound 1 µM, first compound 1 µM
smiles,measurement,setting,value
C=CC(=O)N1CCN(c2nc(=O)n(-c3c(C)ccnc3C(C)C)c3nc(-c4c(O)cccc4F)c(F)cc23)C(C)C1 (stereo not given) + CNC(C)C(=O)NC1CN(S(=O)(=O)c2cccc(S(=O)(=O)N3CCC4CCC(C(=O)NC(c5ccccc5)c5ccccc5)N4C(=O)C(NC(=O)C(C)NC)C3)c2)CCC2CCC(C(=O)NC(c3ccccc3)c3ccccc3)N2C1=O,IC50,second compound 0.01 µM,> 10 µM
same,IC50,second compound 0.0316 µM,> 10 µM
same,IC50,second compound 0.1 µM,> 10 µM
same,IC50,second compound 0.316 µM,> 10 µM
same,IC50,second compound 1 µM,> 10 µM
same,"viability, T/C",[1],104%
same,"viability, T/C",[2],105%
same,"viability, T/C",[3],101%
same,"viability, T/C",[4],102%
same,"viability, T/C","second compound 0.01 µM, first compound 3.16 µM",90.3%
same,"viability, T/C","second compound 0.01 µM, first compound 10 µM",83.6%
same,"viability, T/C",[5],97.4%
same,"viability, T/C",[6],94.5%
same,"viability, T/C",[7],99.4%
same,"viability, T/C",[8],97.2%
same,"viability, T/C","second compound 0.0316 µM, first compound 3.16 µM",87.3%
same,"viability, T/C","second compound 0.0316 µM, first compound 10 µM",86.2%
same,"viability, T/C",[9],88.3%
same,"viability, T/C",[10],94.3%
same,"viability, T/C",[11],100%
same,"viability, T/C",[12],92.5%
same,"viability, T/C","second compound 0.1 µM, first compound 3.16 µM",98.1%
same,"viability, T/C","second compound 0.1 µM, first compound 10 µM",85.4%
same,"viability, T/C",[13],96.6%
same,"viability, T/C",[14],98%
same,"viability, T/C",[15],97.5%
same,"viability, T/C",[16],93.5%
same,"viability, T/C","second compound 0.316 µM, first compound 3.16 µM",87.4%
same,"viability, T/C","second compound 0.316 µM, first compound 10 µM",89.6%
same,"viability, T/C",[17],98.1%
same,"viability, T/C",[18],98.1%
same,"viability, T/C",[19],93.1%
same,"viability, T/C",[20],95.8%
same,"viability, T/C","second compound 1 µM, first compound 3.16 µM",93.5%
same,"viability, T/C","second compound 1 µM, first compound 10 µM",88%
CCN1C(C(=O)NC23CCC(C(=O)O)(CC2)CC3)C(c2cccc(Cl)c2F)C2(C(=O)Nc3cc(Cl)ccc32)C12CCCCC2 (stereo not given) + CNC(C)C(=O)NC1CN(S(=O)(=O)c2cccc(S(=O)(=O)N3CCC4CCC(C(=O)NC(c5ccccc5)c5ccccc5)N4C(=O)C(NC(=O)C(C)NC)C3)c2)CCC2CCC(C(=O)NC(c3ccccc3)c3ccccc3)N2C1=O,IC50,second compound 0.01 µM,0.146 µM
same,IC50,second compound 0.0316 µM,0.12 µM
same,IC50,second compound 0.1 µM,0.11 µM
same,IC50,second compound 0.316 µM,0.115 µM
same,IC50,second compound 1 µM,0.0949 µM
same,"viability, T/C","second compound 0.01 µM, first compound 0.00949 µM",104%
same,"viability, T/C","second compound 0.01 µM, first compound 0.03 µM",95%
same,"viability, T/C","second compound 0.01 µM, first compound 0.0949 µM",71.8%
same,"viability, T/C","second compound 0.01 µM, first compound 0.3 µM",13.8%
same,"viability, T/C","second compound 0.01 µM, first compound 0.949 µM",1.75%
same,"viability, T/C","second compound 0.01 µM, first compound 3 µM",0.88%
same,"viability, T/C","second compound 0.0316 µM, first compound 0.00949 µM",98.9%
same,"viability, T/C","second compound 0.0316 µM, first compound 0.03 µM",96.6%
same,"viability, T/C","second compound 0.0316 µM, first compound 0.0949 µM",60.3%
same,"viability, T/C","second compound 0.0316 µM, first compound 0.3 µM",9.46%
same,"viability, T/C","second compound 0.0316 µM, first compound 0.949 µM",1.09%
same,"viability, T/C","second compound 0.0316 µM, first compound 3 µM",0.76%
same,"viability, T/C","second compound 0.1 µM, first compound 0.00949 µM",99.2%
same,"viability, T/C","second compound 0.1 µM, first compound 0.03 µM",90.2%
same,"viability, T/C","second compound 0.1 µM, first compound 0.0949 µM",56.5%
same,"viability, T/C","second compound 0.1 µM, first compound 0.3 µM",10.5%
same,"viability, T/C","second compound 0.1 µM, first compound 0.949 µM",0.93%
same,"viability, T/C","second compound 0.1 µM, first compound 3 µM",0.63%
same,"viability, T/C","second compound 0.316 µM, first compound 0.00949 µM",102%
same,"viability, T/C","second compound 0.316 µM, first compound 0.03 µM",89.8%
same,"viability, T/C","second compound 0.316 µM, first compound 0.0949 µM",59.6%
same,"viability, T/C","second compound 0.316 µM, first compound 0.3 µM",8.45%
same,"viability, T/C","second compound 0.316 µM, first compound 0.949 µM",0.85%
same,"viability, T/C","second compound 0.316 µM, first compound 3 µM",0.95%
same,"viability, T/C","second compound 1 µM, first compound 0.00949 µM",112%
same,"viability, T/C","second compound 1 µM, first compound 0.03 µM",88.9%
same,"viability, T/C","second compound 1 µM, first compound 0.0949 µM",54.7%
same,"viability, T/C","second compound 1 µM, first compound 0.3 µM",5.93%
same,"viability, T/C","second compound 1 µM, first compound 0.949 µM",0.81%
same,"viability, T/C","second compound 1 µM, first compound 3 µM",0.72%
COc1c(OCCCN2CCOCC2)ccc2c3n(c(=NC(=O)c4cnc(N)nc4)nc12)CCN3 + CNC(C)C(=O)NC1CN(S(=O)(=O)c2cccc(S(=O)(=O)N3CCC4CCC(C(=O)NC(c5ccccc5)c5ccccc5)N4C(=O)C(NC(=O)C(C)NC)C3)c2)CCC2CCC(C(=O)NC(c3ccccc3)c3ccccc3)N2C1=O,IC50,second compound 0.01 µM,> 1 µM
same,IC50,second compound 0.0316 µM,> 1 µM
same,IC50,second compound 0.1 µM,> 1 µM
same,IC50,second compound 0.316 µM,> 1 µM
same,IC50,second compound 1 µM,> 1 µM
same,"viability, T/C","second compound 0.01 µM, first compound 0.00316 µM",106%
same,"viability, T/C","second compound 0.01 µM, first compound 0.01 µM",109%
same,"viability, T/C",[1],116%
same,"viability, T/C",[2],106%
same,"viability, T/C",[3],96%
same,"viability, T/C",[4],68.3%
same,"viability, T/C","second compound 0.0316 µM, first compound 0.00316 µM",113%
same,"viability, T/C","second compound 0.0316 µM, first compound 0.01 µM",126%
same,"viability, T/C",[5],118%
same,"viability, T/C",[6],110%
same,"viability, T/C",[7],98.2%
same,"viability, T/C",[8],72.9%
same,"viability, T/C","second compound 0.1 µM, first compound 0.00316 µM",107%
same,"viability, T/C","second compound 0.1 µM, first compound 0.01 µM",119%
same,"viability, T/C",[9],118%
same,"viability, T/C",[10],107%
same,"viability, T/C",[11],102%
same,"viability, T/C",[12],68.7%
same,"viability, T/C","second compound 0.316 µM, first compound 0.00316 µM",111%
same,"viability, T/C","second compound 0.316 µM, first compound 0.01 µM",122%
same,"viability, T/C",[13],116%
same,"viability, T/C",[14],105%
same,"viability, T/C",[15],96.1%
same,"viability, T/C",[16],69.2%
same,"viability, T/C","second compound 1 µM, first compound 0.00316 µM",114%
same,"viability, T/C","second compound 1 µM, first compound 0.01 µM",124%
same,"viability, T/C",[17],117%
same,"viability, T/C",[18],113%
same,"viability, T/C",[19],95.1%
same,"viability, T/C",[20],73.3%

# Reference: PubChem BioAssay AID1963432 (Molecular Pharmacology Branch, DTP, NCI, 2024)
